The source of these data is patent US6500828B1, “Triazolo-pyridazine derivatives as ligands for gaba receptors” (Merck Sharp & Dohme Ltd., priority 1999, dated 2002).

For orientation: melting point means the temperature, or range, at which the solid turns liquid.

Each structure is given as a SMILES string.

As for `CCn1ncnc1COc1nn2c(-c3c(F)cccc3F)nnc2cc1C(C)(C)C` [Example 3, 3-(2,6-Difluorophenyl)-7-(1,1-dimethylethyl)-6-(2-ethyl-2H-1,2,4-triazol-3-ylmethoxy)-1,2,4-triazolo[4,3-b]pyridazine], the melting point was 182 °C.
